Molecules are shown by their SMILES.

Results on 13 molecules are retold here after ChEMBL document CHEMBL1145875, “Xylylated dimers of putrescine and polyamines: influence of the polyamine backbone on spermidine transport inhibition” (Bioorg Med Chem Lett, 2003).

For one assay, the target named is T47D. The experiment in a line: (§1) Inhibition of spermidine transport determined in T-47D human breast cancer cells. It counts as functional, cell-based.
In turn, `NCCCCNCCCCN` gave a Ki of 2.7 µM.
`NCCCCCCNCCCCCCN` gave an inhibitory constant (Ki) of 20.9 µM.
The same measure, in the same setting: the figure for `NCCCCN` [PUTRESCINE] is above 500 µM.
Still for that read-out and setting: in the case of `NCCCCCNCCCCCN` it was 3.4 µM.
Still for that read-out and setting: in the case of `NCCCCCCN(CCCCCCN)Cc1ccc(CN(CCCCCCN)CCCCCCN)cc1` it was 9.4 µM; in that of `NCCC(CN)OCc1ccc(COC(CN)CCN)cc1` (stereo not drawn), 12.8 µM; in that of `NCCCCCN(CCCCCN)Cc1ccc(CN(CCCCCN)CCCCCN)cc1`, 2.8 µM.
Consider `NCCC(CN)NCc1ccc(CNC(CN)CCN)cc1` (stereo not drawn), for which the Ki is 9.3 µM.
On the same count and under the same terms, in the case of `NCCCNCCCN` [NORSPERMIDINE] it was 9.5 µM.
Still for that read-out and setting: the figure for `NCCCNCCCCNCCCN` [SPERMINE] is 2.1 µM; for `NCCCNCCCCN(CCCN)Cc1ccc(CN(CCCN)CCCCNCCCN)cc1` it is 1.1 µM; for `NCCCCN(CCCCN)Cc1ccc(CN(CCCCN)CCCCN)cc1` it is 2.8 µM.

Another assay relates to T47D. Described as §1. It counts as functional, cell-based.
`NCCCCNCCCN`: the Michaelis-Menten constant (Km) came out at 4.4 µM.
